Results from patent publication US9624217B2, “Dihydropyrrolopyridine inhibitors of ROR-gamma” (Vitae Pharmaceuticals, Inc., priority 2014, dated 2017).

What was measured:
[1] = target: recombinant RORγ Ligand Binding Domain (LBD) (Homo sapiens (Human), UniProt P51449); test: Radio-Ligand RORγ Binding Assay (Assay 1); conditions: SPA competition with 25-hydroxy [26,27-3H]-cholesterol, cell-free; read-out: RORγ Binding Ki Range
Procedure: Radio-Ligand RORγ Binding Assay (Assay 1)
Compounds of the present invention were tested for ability to bind to RORγ in a cell-free competition assay with commercially available radio-ligand (RL), 25-hydroxy [26,27-^3H]-cholesterol (PerkinElmer, Cat. #NET674250UC), for a ligand binding site on a recombinant RORγ Ligand Binding Domain (LBD) protein expressed as a 6×His-Glutathione-S-Transferase (GST) fusion. […] The plate was shaken at 700 rpm for 20 min and incubated for 10 min at rt, after which 40 μL of poly-Lys YSi SPA beads (PerkinElmer, Cat. #RPNQ0010) were added to achieve 50 μg of the beads per well. The plate was incubated on an orbital shaker for 20 min and then for 10 min without agitation at rt. SPA signal for tritium beta radiation was registered on PerkinElmer Microbeta plate reader. […] The percent inhibition vs. concentration data were fit into a four-parameter model, and IC50 values were calculated from the fit as the concentrations corresponding to the inflection points on the dose-response curves.

[2] = target: full-length RORγt (Homo sapiens (Human), UniProt P51449); test: RORγt 5×RORE Assay in Jurkat Cells (Assay 2); format: cell-based; conditions: secreted Nanoluc luciferase 5×RORE reporter, 16-18 hrs, read-out: RORγt5X IC50 Range
Procedure: [formula] RORγt 5×RORE Assay in Jurkat Cells (Assay 2)
Compounds of the present invention were tested for RORγ inverse agonist activity in a cell-based, transcriptional activity assay. […] (Promega, Cat. #N1021) using KpnI and HindIII restriction sites. […] Luciferase activity in the conditioned supernatants was determined with NanoGlo® assay reagents (Promega, Cat. #N1130).

recombinant RORγ Ligand Binding Domain (LBD), sequence (P51449 269-508): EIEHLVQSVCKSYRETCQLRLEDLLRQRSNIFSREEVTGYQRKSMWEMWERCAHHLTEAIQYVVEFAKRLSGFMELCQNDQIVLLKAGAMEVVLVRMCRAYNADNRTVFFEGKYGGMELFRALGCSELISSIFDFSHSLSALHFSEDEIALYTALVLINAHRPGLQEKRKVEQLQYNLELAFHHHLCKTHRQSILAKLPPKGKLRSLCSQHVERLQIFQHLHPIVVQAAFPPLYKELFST
full-length RORγt, sequence (P51449 other isoform, or with tags, fused parts or gaps): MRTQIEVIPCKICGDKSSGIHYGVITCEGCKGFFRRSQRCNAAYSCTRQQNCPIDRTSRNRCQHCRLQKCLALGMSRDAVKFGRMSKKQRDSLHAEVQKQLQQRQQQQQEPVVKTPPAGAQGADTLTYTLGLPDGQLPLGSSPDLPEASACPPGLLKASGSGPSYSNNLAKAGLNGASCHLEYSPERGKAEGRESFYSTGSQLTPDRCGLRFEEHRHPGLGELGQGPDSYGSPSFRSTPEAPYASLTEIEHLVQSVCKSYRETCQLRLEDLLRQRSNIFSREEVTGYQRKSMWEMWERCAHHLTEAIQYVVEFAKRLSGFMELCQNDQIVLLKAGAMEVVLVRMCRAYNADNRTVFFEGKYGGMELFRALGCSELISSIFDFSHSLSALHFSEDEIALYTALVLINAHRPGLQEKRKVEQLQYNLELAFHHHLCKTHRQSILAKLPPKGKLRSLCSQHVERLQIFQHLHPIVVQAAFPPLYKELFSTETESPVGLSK

Ki [1] | IC50 [2] | Structure (SMILES)
< 0.1 µM | < 0.1 µM | CCS(=O)(=O)c1ccc(CNC(=O)c2cnc3c(c2)CN(CC2CCN(CC(F)(F)F)CC2)[C@H]3C(C)C)cc1 [Compound 49]
< 0.1 µM | > 1 µM | CCS(=O)(=O)N1CCC(CNC(=O)c2cnc3c(c2)CN(Cc2ccc(C(F)(F)F)cc2)[C@H]3C(C)C)CC1 [Compound 109]
< 0.1 µM | < 0.1 µM | CCS(=O)(=O)c1ccc(CNC(=O)c2cnc3c(c2)CN(Cc2ccc(C#N)cc2)[C@H]3C(C)C)cc1 [Compound 4]
< 0.1 µM | < 0.1 µM | CCS(=O)(=O)c1ccc(CNC(=O)c2cnc3c(c2)CN(C[C@H]2CC[C@H](OC)CC2)[C@H]3C(C)C)cc1 [Compound 45]
< 0.1 µM | > 1 µM | CC(C)[C@H]1c2ncc(C(=O)NCc3ccc(S(C)(=O)=O)cc3)cc2CN1Cc1ccc(F)cc1 [Compound 24]
< 0.1 µM | < 0.1 µM | CCS(=O)(=O)c1ccc(CNC(=O)c2cnc3c(c2)[C@@H](C)N(Cc2ccc(C(F)(F)F)cc2)[C@H]3C(C)C)cc1 [Compound 30]
< 0.1 µM | < 0.1 µM | CCS(=O)(=O)c1ccc(CNC(=O)c2cnc3c(c2)[C@H](C)N(Cc2ccc(C(F)(F)F)cc2)[C@H]3C(C)C)cc1 [Compound 31]
< 0.1 µM | 0.1 to 1 µM | CCS(=O)(=O)c1ccc(CNC(=O)c2cnc3c(c2)CN(Cc2ccc(C#N)cc2)[C@H]3C(C)C)nc1 [Compound 35]
< 0.1 µM | < 0.1 µM | CCS(=O)(=O)c1ccc(CNC(=O)c2cnc3c(c2)[C@@H](C)N(Cc2ccc(Cl)cc2)[C@H]3C(C)C)cc1 [Compound 28]
